This is an account of results in publication PMC9863965 (Molecules, 2023).

Values after ≈ are worked out from the molar mass of the structure shown.

The test system of test [1] is tumor microtubule proteins of cancer cells. Further details: method as in doi:10.1016/j.molstruc.2022.132636, PMID 22721782. To be noted: cited from earlier work.
Test [2] concerns normal human fetal lung fibroblast (WI38). The experiment in a line: MTT cytotoxicity assay, normal fibroblast (WI38). Format: cell-based. As to conditions: WI-38, mean ± standard deviation. The source says: (§1) The cell lines laboratory at Vacsera, Dokkey, Giza, Egypt provided colon cancer (Caco2), cervical cancer (HeLa), prostate cancer (PC3), breast cancer (MCF7), hepatocellular carcinoma (HepG2) and normal human fetal lung fibroblast (WI38). The sterility of the process was maintained using a laminar airflow cabinet. The Roswell Park Memorial Institute medium (RPMI 1640) was used to sustain the cell culture. […] The 10% heat-inactivated fetal bovine serum was used to supplement the medium. The 3-(4,5-dimethylthiazol-2-yl)-2,5-diphenyl-2H-tetrazolium bromide (MTT) assay was employed to measure cytotoxicity. A purple formazan was created from the yellow MTT via a mitochondrial reduction. For inoculation, a 96-well microplate was filled with 1 × 10^5 cells per well in 100 μL of Roswell Park Memorial Institute medium (RPMI 1640). Conditions of 5% CO2, 37 °C and 95% humidity were used to incubate the microplate for 24 h to produce a completely formed monolayer sheet. After the cells formed a confluent layer, the growth media was decanted from 96-well microplates. […] Confluent cell monolayers were injected with 0.1 mL of the extract at each concentration using a multichannel pipette, and then they were dispersed throughout the 96 wells. The cells that were treated with the extracts were incubated at 37 °C and 5% CO2 for 24 h. […] The optical density at 560 nm was determined using a microplate reader. […]

For another test, the system named is breast cancer (MCF7). Description: MTT cytotoxicity assay, breast cancer (MCF7). Type of test: cell-based.
Description: as §1

Another test has as its system colon cancer (Caco2). Description: MTT cytotoxicity assay, colon cancer (Caco2). Format: cell-based.
Description: as §1

In a further test the test system is prostate cancer (PC3). The experiment in a line: MTT cytotoxicity assay, prostate cancer (PC3). Format: cell-based.
Description: as §1

Test [3] relates to hepatocellular carcinoma (HepG2). The experiment in a line: MTT cytotoxicity assay, hepatocellular carcinoma (HepG2). Format: cell-based.
Description: as §1
(In general: Formazan colour is commonly taken as a measure of viable cells.)

In another test the test system is cervical cancer (HeLa). The experiment in a line: MTT cytotoxicity assay, cervical cancer (HeLa). Type of test: cell-based.
Description: as §1

For the compound Calystegine B, the “antitumor effect on assembly of tumor microtubule proteins” value in test [1] is reported as “preventing the assembly of tumor microtubule proteins”.

With `COc1cccc2c1C(=O)c1c(O)c3c(c(O)c1C2=O)C[C@@](O)(C(=O)CO)C[C@@H]3O[C@H]1C[C@H](N)[C@H](O)[C@H](C)O1` [Doxorubicin, doxorubicin], the IC50 (as a rule, the point on the concentration scale where inhibition reaches its midpoint) in test [2] was found to be 51 ± 4 µg/mL (≈ 93.8 µM); in the test with breast cancer (MCF7) (Homo sapiens, MTT assay, breast cancer (MCF7), mean ± standard deviation), 36 ± 6 µg/mL (≈ 66.2 µM); in the test on colon cancer (Caco2) (Homo sapiens, Caco-2, MTT assay, colon cancer (Caco2), mean ± standard deviation) it was 70.1 ± 1 µg/mL (≈ 129 µM); in the test with prostate cancer (PC3) (MTT assay, prostate cancer (PC3), mean ± standard deviation), 38 ± 2 µg/mL (≈ 69.9 µM); in test [3] (Homo sapiens, MTT assay, hepatocellular carcinoma (HepG2), mean ± standard deviation), 44 ± 3 µg/mL (≈ 81 µM); in the test with cervical cancer (HeLa) (Homo sapiens, MTT assay, cervical cancer (HeLa), mean ± standard deviation) it was 40 ± 2 µg/mL (≈ 73.6 µM). For the same compound, the “SI: selectivity index” value came out at 1.4 in the test with breast cancer (MCF7) (IC50 of non-cancer cell line (WI38) / IC50 of MCF7); 0.7 in the test with colon cancer (Caco2) (IC50 of non-cancer cell line (WI38) / IC50 of Caco2); 1.3 in the test on prostate cancer (PC3) (IC50 of non-cancer cell line (WI38) / IC50 of PC3); 1.1 in test [3] (IC50 of non-cancer cell line (WI38) / IC50 of HepG2); 1.2 in the test on cervical cancer (HeLa) (IC50 of non-cancer cell line (WI38) / IC50 of HeLa).
